Consider 34 compounds from US7538241B2, “Hsp90 family protein inhibitors” (Kyowa Hakko Kogyo Co., Ltd., priority 2003, dated 2009).

The assay concerns human mammary cancer-derived KPL-4 cells. The assay can be described thus: Cell growth inhibition test with KPL-4 cells (WST-1). Type of assay: cell-based. To be noted: KPL4, 72 hours, read-out: 50% growth inhibition concentration (GI50). How it is done: In a 96-well plate (Nunc), human mammary cancer-derived KPL-4 cells were sown in an amount of 2000 cells/well, and pre-incubated in 10% fetal calf serum (FCS)-containing Dulbecco Modified Eagle Medium (DMEM) (incubation medium) in a 5% carbon dioxide incubator at 37° C. for 24 hours. A dimethylsulfoxide (DMSO) solution of a test compound controlled at 10 mmol/L was stepwise diluted with the incubation medium, and added to each well in a total amount of 100 μL/well, and incubated in the 5% carbon dioxide incubator at 37° C. for 72 hours. After the incubation, WST-1 {4-[3-(4-Iodophenyl)-2-(4-nitrophenyl)-2H-5-tetrazolio]-1,3-benzene disulfonate}-labeled mixture (Rosh Diagnostic) diluted 2-fold with the incubation medium was added thereto in an amount of 20 μL/well, and incubated in the 5% carbon dioxide incubator at 37° C. for 1 hour. Using a microplate spectrophotometer (Biorad's Model 550), the absorbance at 450 nm and 655 nm of each well was measured. The cell growth inhibition activity of the test compound was indicated by the 50% growth inhibition concentration (GI50) thereof. A method of calculating GI50 is described. The absorbance at 655 nm of each well was subtracted from the absorbance at 450 nm thereof to give a value (absorbance difference). The absorbance difference obtained with the cells without being treated with the test compound was taken as 100%, and this was compared with the absorbance difference obtained with the cells treated with the test compound to give the concentration of the compound for 50% cell growth inhibition, and this is referred to as GI50.
(Tetrazolium assays rely on reduction of a dye to a coloured formazan, in cell work by metabolically active cells.)
In the case of `CCc1c(O)cc(O)c(-c2cccc(OC)c2)c1CC(=O)OC` [Compound 142, Methyl 2-ethyl-3,5-dihydroxy-6-(3-methoxyphenyl)phenylacetate], the GI50 is at most 50 µM. In the case of `COC(=O)Cc1cc(O)cc(O)c1-c1ccc(C(C)=O)cc1` [Compound 73, Methyl 2-(4-acetylphenyl)-3,5-dihydroxyphenylacetate], the GI50 is at most 50 µM. As for `CC(=O)Cc1c(Br)c(O)cc(O)c1-c1ccccc1` [Compound 65, 1-(2-Bromo-3,5-dihydroxy-6-phenylphenyl)propan-2-one], the figure is at most 50 µM; as for `COCCc1c(Br)c(O)cc(O)c1-c1cccc(OC)c1` [Compound 105, 6-Bromo-5-(2-methoxyethyl)-4-(3-methoxyphenyl)benzene-1,3-diol], at most 50 µM. As for `COCCCc1c(Br)c(O)cc(O)c1-c1ccccc1` [Compound 97, 6-Bromo-5-(3-methoxypropyl)-4-phenylbenzene-1,3-diol], the figure is at most 50 µM.

Take `COc1c(Br)c(O)cc(O)c1-c1ccccc1` [Compound 61, 6-Bromo-5-methoxy-4-phenylbenzene-1,3-diol]: the GI50 was at most 50 µM.

On to `CCc1c(O)cc(O)c(-c2ccccc2)c1CCOC1OC(CO)C(O)C(O)C1O` (stereo not shown) [Compound 183, 6-Ethyl-4-phenyl-5-{2-[3,4,5-trihydroxy-6-(hydroxymethyl)tetrahydropyran-2-yloxy]ethyl}benzene-1,3-diol], for which the GI50 was at most 50 µM. With `CCOC(=O)CCc1ccc(-c2c(O)cc(O)cc2COCc2ccccc2)o1` [Compound 236, Ethyl 3-{5-[6-(benzyloxymethyl)-2,4-dihydroxyphenyl]furan-2-yl}propanoate], the GI50 is at most 50 µM. On to `CNCCc1c(Br)c(O)cc(O)c1-c1ccccc1` [Compound 98, 6-Bromo-5-[2-(N-methylamino)ethyl]-4-phenylbenzene-1,3-diol], for which the GI50 is at most 50 µM. On to `COC(=O)CCc1c(Br)c(O)cc(O)c1-c1ccccc1` [Compound 87, Methyl 3-(2-bromo-3,5-dihydroxy-6-phenylphenyl)propanoate], for which the GI50 is at most 50 µM.

In the case of `CCOc1cccc(-c2c(O)cc(O)c(CC)c2CCOC)c1` [Compound 133, 4-(3-Ethoxyphenyl)-6-ethyl-5-(2-methoxyethyl)benzene-1,3-diol], the GI50 was at most 50 µM. Turning to `Oc1cc(O)c(-c2ccccc2)c(COCc2ccccc2)c1Br` [Compound 25, 5-(Benzyloxymethyl)-6-bromo-4-phenylbenzene-1,3-diol], the GI50 is at most 50 µM. In the case of `O=C(Cc1c(Br)c(O)cc(O)c1-c1ccccc1)N1CCOCC1` [Compound 35, 2-(2-Bromo-3,5-dihydroxy-6-phenylphenyl)-1-morpholinoethanone] it was at most 50 µM; in that of `COCCNC(=O)Cc1c(Br)c(O)cc(O)c1-c1ccccc1` [Compound 23, 2-(2-Bromo-3,5-dihydroxy-6-phenylphenyl)-N-(2-methoxyethyl)acetamide], at most 50 µM.

Turning to `CCc1c(O)cc(O)c(-c2ccccc2)c1CCOCC(N)=O` [Compound 155, 2-[2-(2-Ethyl-3,5-dihydroxy-6-phenylphenyl)ethoxy]acetamide], the GI50 was at most 50 µM. Regarding `COCCc1c(C(=O)C(F)(F)F)c(O)cc(O)c1-c1ccccc1` [Compound 125, 1-[2,4-Dihydroxy-6-(2-methoxyethyl)-5-phenylphenyl]-2,2,2-trifluoroethanone], the GI50 is at most 50 µM. As for `CCc1c(O)cc(O)c(-c2ccccc2)c1CCC(O)CC(O)CO` (stereo not shown) [Compound 169, 6-Ethyl-4-phenyl-5-(3,5,6-trihydroxyhexyl)benzene-1,3-diol], the figure is at most 50 µM. For `COC(=O)Cc1cc(O)cc(O)c1-c1cccc(CO)c1` [Compound 76, Methyl 3,5-dihydroxy-2-[3-(hydroxymethyl)phenyl]phenylacetate], the GI50 was at most 50 µM.

On to `COCCc1c(C(C)=O)c(O)cc(O)c1-c1cccc(-c2ccccc2)c1` [Compound 120, 1-[2,4-Dihydroxy-6-(2-methoxyethyl)-5-(3-phenylphenyl)phenyl]ethanone], for which the GI50 was at most 50 µM.

On to `COCOCCc1c(Br)c(O)cc(O)c1-c1ccccc1` [Compound 111, 6-Bromo-5-[2-(methoxymethoxy)ethyl]-4-phenylbenzene-1,3-diol], for which the GI50 is at most 50 µM. `COCCc1c(C(=O)OC)c(O)cc(O)c1-c1ccccc1` [Compound 128, Methyl 2,4-dihydroxy-6-(2-methoxyethyl)-5-phenylbenzoate]: the GI50 was at most 50 µM. As for `NC(=O)Cc1c(Br)c(O)cc(O)c1-c1ccccc1` [Compound 41, 2-(2-Bromo-3,5-dihydroxy-6-phenylphenyl)acetamide], the figure is at most 50 µM; as for `COC(=O)c1c(Br)c(O)cc(O)c1-c1ccccc1` [Compound 47, Methyl 2-bromo-3,5-dihydroxy-6-phenylbenzoate], at most 50 µM; as for `O=C(c1ccccc1)c1c(Br)c(O)cc(O)c1-c1ccccc1` [Compound 58, 2-Bromo-3,5-dihydroxy-6-phenylphenyl phenyl ketone], at most 50 µM. As for `COCCc1c(-c2ccccc2)c(O)cc(O)c1C(C)C` [Compound 151, 6-Isopropyl-5-(2-methoxyethyl)-4-phenylbenzene-1,3-diol], the figure is at most 50 µM. Consider `CCc1c(O)cc(O)c(-c2cccc(CCC(C)O)c2)c1CCOCCOC` (stereo not shown) [Compound 154, 6-Ethyl-4-[3-(3-hydroxybutyl)phenyl]-5-[2-(2-methoxyethoxy)ethyl]benzene-1,3-diol], for which the GI50 was at most 50 µM. As for `CCc1c(O)cc(O)c(-c2ccccc2)c1CC(O)C(O)CO` (stereo not shown) [Compound 180, 6-Ethyl-4-phenyl-5-(2,3,4-trihydroxybutyl)benzene-1,3-diol], the figure is at most 50 µM; as for `CCc1c(O)cc(O)c(-c2ccccc2)c1CCCOCC(=O)N(C)C` [Compound 160, 2-[3-(2-Ethyl-3,5-dihydroxy-6-phenylphenyl)propoxy]-N,N-dimethylacetamide], at most 50 µM.

Consider `CCc1cc(-c2nc3ccccc3n2-c2ccccc2)c(O)cc1O` [Compound 279, 6-Ethyl-4-(1-phenylbenzimidazol-2-yl)benzene-1,3-diol], for which the GI50 was at most 50 µM. As for `CCc1c(O)cc(O)c(-c2cccc(OCc3ccncc3)c2)c1CCOCC(O)CO` (stereo not shown) [Compound 192, 5-[2-(2,3-Dihydroxypropoxy)ethyl]-6-ethyl-4-[3-(pyridin-4-ylmethyloxy)phenyl]benzene-1,3-diol], the figure is at most 50 µM.

In the case of `CCc1c(OC)cc(O)c(-c2ccccc2)c1CC(=O)OC` [Compound 126, Methyl 6-ethyl-3-hydroxy-5-methoxy-2-phenylphenylacetate], the GI50 was at most 50 µM.

As for `CCc1c(O)cc(O)c(-c2cccc(OC)c2)c1CC(=O)N(C)CCOC` [Compound 150, 2-[2-Ethyl-3,5-dihydroxy-6-(3-methoxyphenyl)phenyl]-N-(2-methoxyethyl)-N-methylacetamide], the GI50 was at most 50 µM. Consider `CCc1c(O)cc(O)c(-c2cccc(C(=O)OC)c2)c1CCOC` [Compound 131, Methyl 3-[5-ethyl-2,4-dihydroxy-6-(2-methoxyethyl)phenyl]benzoate], for which the GI50 is at most 50 µM.

With `O=C(Cc1c(Br)c(O)cc(O)c1-c1ccccc1)NCc1cccnc1` [Compound 17, 2-(2-Bromo-3,5-dihydroxy-6-phenylphenyl)-N-(pyridin-3-ylmethyl)acetamide], the GI50 was at most 50 µM.
